According to patent publication US20250101041A1, “POSITIVE ALLOSTERIC MODULATORS OF THE MUSCARINIC ACETYLCHOLINE RECEPTOR M4” (Vanderbilt University, priority 2022, published 2025):

Molecular target: T1, human mAChR M4 (Homo sapiens, UniProt P08173)
T1 construct: expressed in transfected cells; host or cells: CHO-K1 (American Type Culture Collection), stably expressing hM4 and Gqi5
T1 sequence (P08173 1-479): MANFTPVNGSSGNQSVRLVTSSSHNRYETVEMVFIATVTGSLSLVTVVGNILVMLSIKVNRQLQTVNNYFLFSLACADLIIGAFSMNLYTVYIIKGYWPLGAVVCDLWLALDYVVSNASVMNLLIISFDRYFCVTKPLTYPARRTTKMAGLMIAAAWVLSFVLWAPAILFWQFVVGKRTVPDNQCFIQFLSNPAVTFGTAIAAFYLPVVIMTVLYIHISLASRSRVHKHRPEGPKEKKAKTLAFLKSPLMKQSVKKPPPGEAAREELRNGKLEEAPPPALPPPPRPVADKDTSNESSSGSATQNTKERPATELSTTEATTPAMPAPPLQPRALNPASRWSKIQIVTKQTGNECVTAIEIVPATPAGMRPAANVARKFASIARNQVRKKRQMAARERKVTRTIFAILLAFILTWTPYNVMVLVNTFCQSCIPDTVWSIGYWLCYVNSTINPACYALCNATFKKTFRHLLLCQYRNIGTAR
Assay: mAChR M4 cell-based functional assay: calcium mobilization (Fluo-4, FDSS), potentiation of EC20 acetylcholine response in hM4-Gqi5 CHO-K1 cells
Settings: human M4; for Emax at 30 µM: CHO-K1, % ACh maximum at 30 μM; for EC50: potentiation of EC20 acetylcholine response, calcium mobilization
Summary of the method: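 CHO-K1 cells stably co-expressing human M4 and chimeric Gqi5, loaded with Fluo-4 AM (50 min, 37 °C). Compounds in 11-point 1:3 series added first; EC20 acetylcholine added at 144 s and again at 230 s. Calcium read on FDSS at 1 Hz; EC50 and Emax from four-parameter logistic fit of potentiated EC20 response.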

SMILES	Emax at 30 µM [%]	EC50 [nM]
Cc1cc(=O)n2nc(N3CCc4ncc(N5CCOC(c6cccnc6)C5)cc4C3)c(C)c(C)c2n1 (stereo not shown) [Compound 2-49, 2,8,9-trimethyl-7-(3-(2-(pyridin-3-yl)morpholino)-7,8-dihydro-1,6-naphthyridin-6(5H)-yl)-4H-pyrimido[1,2-b]pyridazin-4-one]	75	1200
Cc1cc(=O)n2nc(N3CCc4ncc(-c5ccccc5C(C)C)cc4C3)c(C)c(C)c2n1 [Compound 1-247, 7-(3-(2-isopropylphenyl)-7,8-dihydro-1,6-naphthyridin-6(5H)-yl)-2,8,9-trimethyl-4H-pyrimido[1,2-b]pyridazin-4-one]	55	1030
CCN(CC)c1cnc2c(c1)CN(c1nn3c(=O)ccnc3cc1C)CC2 [Compound 2-92, 7-(3-(diethylamino)-7,8-dihydro-1,6-naphthyridin-6(5H)-yl)-8-methyl-4H-pyrimido[1,2-b]pyridazin-4-one]	70	863
Cc1cc2nccc(=O)n2nc1N1CCc2ncc(-c3ccccc3C(C)(F)F)cc2C1 [Compound 1-433, 7-(3-(2-(1,1-difluoroethyl)phenyl)-7,8-dihydro-1,6-naphthyridin-6(5H)-yl)-8-methyl-4H-pyrimido[1,2-b]pyridazin-4-one]	41	1250
COCc1cc(=O)n2nc(N3CCc4ncc(-c5cc(F)ncc5F)cc4C3)c(C)cc2n1 [Compound 1-320, 7-(3-(2,5-difluoropyridin-4-yl)-7,8-dihydro-1,6-naphthyridin-6(5H)-yl)-2-(methoxymethyl)-8-methyl-4H-pyrimido[1,2-b] pyridazin-4-one]	77	1470
COc1ccc(-c2cnc3c(c2)CN(c2nn4c(=O)cc(C(F)F)nc4c(C)c2C)CC3)cn1 [Compound 1-170, 2-(difluoromethyl)-7-(3-(6-methoxypyridin-3-yl)-7,8-dihydro-1,6-naphthyridin-6(5H)-yl)-8,9-dimethyl-4H-pyrimido[1,2-b]pyridazin-4-one]	95	185
Cc1cc(=O)n2nc(N3CCc4ncc(-c5ccccc5C)cc4C3)c(C)c(C)c2n1 [Compound 1-137, 2,8,9-trimethyl-7-(3-(o-tolyl)-7,8-dihydro-1,6-naphthyridin-6(5H)-yl)-4H-pyrimido[1,2-b]pyridazin-4-one]	109	1730
Cc1cc(=O)n2nc(N3CCc4ncc(-c5ccnn5C)cc4C3)c(C)cc2n1 [Compound 1-29, 2,8-dimethyl-7-(3-(1-methyl-1H-pyrazol-5-yl)-7,8-dihydro-1,6-naphthyridin-6(5H)-yl)-4H-pyrimido[1,2-b]pyridazin-4-one]	85	146
Cc1cc2nccc(=O)n2nc1N1CCc2ncc(-c3ccn(C)c(=O)c3)cc2C1 [Compound 1-37, 8-methyl-7-(3-(1-methyl-2-oxo-1,2-dihydropyridin-4-yl)-7,8-dihydro-1,6-naphthyridin-6(5H)-yl)-4H-pyrimido[1,2-b]pyridazin-4-one]	83	2530
Cc1cc2nccc(=O)n2nc1N1CCc2ncc(Nc3cccc(F)c3)cc2C1 [Compound 2-79, 7-(3-((3-fluorophenyl)amino)-7,8-dihydro-1,6-naphthyridin-6(5H)-yl)-8-methyl-4H-pyrimido[1,2-b]pyridazin-4-one]	99	20
Cc1cc2nccc(=O)n2nc1N1CCc2ncc(Nc3cncc(F)c3)cc2C1 [Compound 2-128, 7-(3-((5-fluoropyridin-3-yl)amino)-7,8-dihydro-1,6-naphthyridin-6(5H)-yl)-8-methyl-4H-pyrimido[1,2-b]pyridazin-4-one]	82	90

Continued, values first:

Emax at 30 µM [%]	EC50 [nM]	SMILES
68	298	COCc1cc(=O)n2nc(N3CCc4ncc(-c5cnn(C6CC6)c5)cc4C3)c(C)cc2n1 [Compound 1-364, 7-(3-(1-cyclopropyl-1H-pyrazol-4-yl)-7,8-dihydro-1,6-naphthyridin-6(5H)-yl)-2-(methoxymethyl)-8-methyl-4H-pyrimido[1,2-b]pyridazin-4-one]
83	245	COCc1cc(=O)n2nc(N3CCc4ncc(-c5ccccc5F)cc4C3)c(C)cc2n1 [Compound 1-360, 7-(3-(2-fluorophenyl)-7,8-dihydro-1,6-naphthyridin-6(5H)-yl)-2-(methoxymethyl)-8-methyl-4H-pyrimido[1,2-b] pyridazin-4-one]
82	136	COCc1cc(=O)n2nc(N3CCc4ncc(-c5cnccc5C)cc4C3)c(C)cc2n1 [Compound 1-359, 2-(methoxymethyl)-8-methyl-7-(3-(4-methylpyridin-3-yl)-7,8-dihydro-1,6-naphthyridin-6(5H)-yl)-4H-pyrimido[1,2-b] pyridazin-4-one]
80	1130	Cc1cc(=O)n2nc(N3CCc4ncc(-c5ccc(C)c(F)c5)cc4C3)c(C)c(C)c2n1 [Compound 1-196, 7-(3-(3-fluoro-4-methylphenyl)-7,8-dihydro-1,6-naphthyridin-6(5H)-yl)-2,8,9-trimethyl-4H-pyrimido[1,2-b]pyridazin-4-one]
67	483	Cc1c(N2CCc3ncc(-c4cc(F)cc(F)c4F)cc3C2)nn2c(=O)ccnc2c1C [Compound 1-346, 8,9-dimethyl-7-(3-(2,3,5-trifluorophenyl)-7,8-dihydro-1,6-naphthyridin-6(5H)-yl)-4H-pyrimido[1,2-b]pyridazin-4-one]
98	2340	Cc1cc2nccc(=O)n2nc1N1CCc2ncc(-c3ccc(=O)n(C)c3)cc2C1 [Compound 1-49, 8-methyl-7-(3-(1-methyl-6-oxo-1,6-dihydropyridin-3-yl)-7,8-dihydro-1,6-naphthyridin-6(5H)-yl)-4H-pyrimido[1,2-b]pyridazin-4-one]
79	900	Cc1c(N2CCc3ncc(-c4ccc(F)c(F)c4)cc3C2)nn2c(=O)cc(C(F)F)nc2c1C [Compound 1-283, 2-(difluoromethyl)-7-(3-(3,4-difluorophenyl)-7,8-dihydro-1,6-naphthyridin-6(5H)-yl)-8,9-dimethyl-4H-pyrimido[1,2-b]pyridazin-4-one]
97	21	Cc1cc2nccc(=O)n2nc1N1CCc2ncc(N3CCCn4nccc43)cc2C1 [Compound 2-1, 7-(3-(6,7-dihydropyrazolo[1,5-a]pyrimidin-4(5H)-yl)-7,8-dihydro-1,6-naphthyridin-6(5H)-yl)-8-methyl-4H-pyrimido[1,2-b]pyridazin-4-one]
92	80	Cc1cc(=O)n2nc(N3CCc4ncc(N5CCO[C@H](C)C5)cc4C3)c(C)cc2n1 [Compound 2-18, (R)-2,8-dimethyl-7-(3-(2-methylmorpholino)-7,8-dihydro-1,6-naphthyridin-6(5H)-yl)-4H-pyrimido[1,2-b]pyridazin-4-one]
71	235	Cc1cc(=O)n2nc(N3CCc4ncc(-c5ccccc5F)cc4C3)c(C)cc2n1 [Compound 1-234, 7-(3-(2-fluorophenyl)-7,8-dihydro-1,6-naphthyridin-6(5H)-yl)-2,8-dimethyl-4H-pyrimido[1,2-b]pyridazin-4-one]
92	8	Cc1cc2nc(C(F)(F)F)cc(=O)n2nc1N1CCc2ncc(Nc3ccncc3F)cc2C1 [Compound 2-160, 7-(3-((3-fluoropyridin-4-yl)amino)-7,8-dihydro-1,6-naphthyridin-6(5H)-yl)-8-methyl-2-(trifluoromethyl)-4H-pyrimido[1,2-b]pyridazin-4-one]
86	41	Cc1cc2nc(C(F)F)cc(=O)n2nc1N1CCc2ncc(Nc3ccnn3C)cc2C1 [Compound 2-27, 2-(difluoromethyl)-8-methyl-7-(3-((1-methyl-1H-pyrazol-5-yl)amino)-7,8-dihydro-1,6-naphthyridin-6(5H)-yl)-4H-pyrimido[1,2-b]pyridazin-4-one]
68	8720	Cc1cc(=O)n2nc(N3CCc4ncc(-c5cncnc5)cc4C3)c(C)cc2n1 [Compound 1-286, 2,8-dimethyl-7-(3-(pyrimidin-5-yl)-7,8-dihydro-1,6-naphthyridin-6(5H)-yl)-4H-pyrimido[1,2-b]pyridazin-4-one]
100	21	COc1cc(Nc2cnc3c(c2)CN(c2nn4c(=O)ccnc4cc2C)CC3)ccn1 [Compound 2-141, 7-(3-((2-methoxypyridin-4-yl)amino)-7,8-dihydro-1,6-naphthyridin-6(5H)-yl)-8-methyl-4H-pyrimido[1,2-b]pyridazin-4-one]
102	416	Cc1ccc(-c2cnc3c(c2)CN(c2nn4c(=O)ccnc4c(C)c2C)CC3)cc1F [Compound 1-143, 7-(3-(3-fluoro-4-methylphenyl)-7,8-dihydro-1,6-naphthyridin-6(5H)-yl)-8,9-dimethyl-4H-pyrimido[1,2-b]pyridazin-4-one]
